Measured values reported in PubChem BioAssay AID2060912 (Molecular Pharmacology Branch, DTP, NCI, 2025).

System: HUVEC/MSC spheroids viability
Assay: Human HUVEC/MSC cell line growth inhibition [KRAS2];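 on viability, T/C: percent of DMSO vehicle control luminescence so 100% = untreated viability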
Conditions: for IC50: curve of first compound; for viability, T/C: stronger effect = lower value
From the text: Multicellular complex tumor spheroid response to RAS pathway inhibitors in combination with a targeted agents in patient-derived cell lines with oncogenic KRAS variants from multiple cancer types
A high-throughput screen of multi-cell type tumor spheroids was designed to identify active combinations of targeted small molecules and KRAS pathway inhibitors. Complex spheroids include a stromal component modeled by human endothelial cells (HUVEC) and fibroblasts modeled by human mesenchymal stem cells (MSCs). The concentration ranges selected for each drug and investigational agent were based upon clinically achievable concentrations if the clinical Cmax of the agent was known. * [This particular assayID is a followup dataset requested by reviewers of the manuscript. It is a test of the HUVEC and MSC without the tumor cells, and was conducted using different drug plates and a different plate layout.]
Compounds. The drugs and investigational agents: BI-3406 (NSC825286), BAY-293 (NSC824723), batoprotafib (TNO155; NSC825523), sotorasib (AMG 510; NSC818433), MRTX1257 (NSC819558), elimusertib (BAY 1895344; NSC800525), molibresib (GSK525762; NSC774829), temuterkib (LY3214996; NSC803410), venetoclax (NSC766270), alisertib (NSC759677), olaparib (NSC753686), talazoparib (NSC767125), erdafitinib (NSC781556), ipatasertib (NSC767898), cabozantinib (NSC761068), nintedanib (NSC756659), abemaciclib (NSC768073), docetaxel (NSC628503), trametinib (NSC758246), and sapanisertib (NSC764658) were obtained from the National Cancer Institute (NCI) Developmental Therapeutics Program Chemical Repository. The FDA-approved anticancer drug set is available from the Developmental Therapeutics Program. […] The stock solutions were prepared in dimethyl sulfoxide (DMSO, Sigma-Aldrich, St. Louis, MO, cat. D2650) at 800-fold the tested concentration and stored at -70 degrees C prior to their use. All drugs and investigational agents were tested over a range starting from a high concentration at or near the clinical Cmax and decreasing in half-log increments. If the clinical Cmax for an agent had not been determined, the highest concentration tested was 10 microM.
Cell Culture. All cells were maintained in an incubator at 37 degrees C and 5% CO2 with 95% humidity. The PDC lines were cultured according to standard operating procedures established by the NCI PDMR (https://pdmr.cancer.gov/sops/default.htm). Briefly, all PDCs were thawed and cultured in Matrigel-coated flasks prepared with a working solution of 1X Ham's F-12 nutrient mix, without supplementation (Invitrogen, Waltham, MA, cat. 11765054), 100 U/mL penicillin-streptomycin (Invitrogen, cat. 15140122), and 2.5% Matrigel (Corning Inc., Corning, NY, cat. 354248) for the first three passages. All PDCs were cultured in complete DMEM/F-12 media containing advanced DMEM/F-12 (Invitrogen, cat. 12634028), 4.9% defined fetal bovine serum, heat inactivated (HyClone Laboratories Inc., Logan, UT, cat. SH30070.03HI), 389 ng/mL hydrocortisone (Sigma-Aldrich, cat. H4001), 9.7 ng/mL human EGF recombinant protein (Invitrogen, cat. PHG0313), 23.4 microg/mL adenine (Sigma-Aldrich, cat. A2786), 97.3 U/mL penicillin-streptomycin (Invitrogen, cat. 15140122), 1.9 mM L-glutamine (Invitrogen, cat. 25030081), and 9.7 microM Y-27632 dihydrochloride (Tocris Bioscience, Bristol, United Kingdom, cat. 1254). The PDCs were cultured in complete DMEM/F12 media without 9.7 microM Y-27632 dihydrochloride for at least two passages prior to the screen. The established cell line HOP-62 was cultured in RPMI 1640 medium, HEPES (Invitrogen, cat. 22400105) with 10% defined fetal bovine serum (HyClone Laboratories Inc., cat. SH30070.03) and 2 mM L-glutamine (Invitrogen, cat. 25030081). The pooled donor HUVEC were cultured in endothelial cell growth medium 2 (PromoCell, Heidelberg, Germany, cat. C-22011) and the hMSC were cultured in mesenchymal stem cell growth medium 2 (PromoCell, cat. C-28009). […]

[1] = second compound 0.0316 µM, first compound 0.0316 µM
[2] = second compound 0.0316 µM, first compound 0.1 µM
[3] = second compound 0.0316 µM, first compound 0.316 µM
[4] = second compound 0.0316 µM, first compound 1 µM
[5] = second compound 0.1 µM, first compound 0.0316 µM
[6] = second compound 0.1 µM, first compound 0.1 µM
[7] = second compound 0.1 µM, first compound 0.316 µM
[8] = second compound 0.1 µM, first compound 1 µM
[9] = second compound 0.316 µM, first compound 0.0316 µM
[10] = second compound 0.316 µM, first compound 0.1 µM
[11] = second compound 0.316 µM, first compound 0.316 µM
[12] = second compound 0.316 µM, first compound 1 µM
[13] = second compound 1 µM, first compound 0.0316 µM
[14] = second compound 1 µM, first compound 0.1 µM
[15] = second compound 1 µM, first compound 0.316 µM
[16] = second compound 1 µM, first compound 1 µM
[17] = second compound 3.16 µM, first compound 0.0316 µM
[18] = second compound 3.16 µM, first compound 0.1 µM
[19] = second compound 3.16 µM, first compound 0.316 µM
[20] = second compound 3.16 µM, first compound 1 µM
[21] = second compound 10 µM, first compound 0.0316 µM
[22] = second compound 10 µM, first compound 0.1 µM
[23] = second compound 10 µM, first compound 0.316 µM
[24] = second compound 10 µM, first compound 1 µM
[25] = second compound 0.0316 µM, first compound 0.00316 µM
[26] = second compound 0.0316 µM, first compound 0.01 µM
[27] = second compound 0.1 µM, first compound 0.00316 µM
[28] = second compound 0.1 µM, first compound 0.01 µM
[29] = second compound 0.316 µM, first compound 0.00316 µM
[30] = second compound 0.316 µM, first compound 0.01 µM
[31] = second compound 1 µM, first compound 0.00316 µM
[32] = second compound 1 µM, first compound 0.01 µM
[33] = second compound 3.16 µM, first compound 0.00316 µM
[34] = second compound 3.16 µM, first compound 0.01 µM
[35] = second compound 10 µM, first compound 0.00316 µM
[36] = second compound 10 µM, first compound 0.01 µM

`CC(C)NCC(C(=O)N1CCN(c2ncnc3c2C(C)CC3O)CC1)c1ccc(Cl)cc1` (stereo unspecified) + C=CC(=O)N1CCN(c2nc(=O)n(-c3c(C)ccnc3C(C)C)c3nc(-c4c(O)cccc4F)c(F)cc23)C(C)C1 was tested, and the IC50 (second compound 0.0316 µM) was greater than 10 µM, the IC50 (second compound 0.1 µM) was greater than 10 µM and the IC50 (second compound 0.316 µM) was greater than 10 µM. The IC50 (second compound 1 µM) was greater than 10 µM, the IC50 (second compound 3.16 µM) was greater than 10 µM and the IC50 (second compound 10 µM) was greater than 10 µM. The viability, T/C [1] was 87.5%, the viability, T/C [2] was 93.7% and the viability, T/C [3] was 97.1%. For the same molecule, the viability, T/C [4] was 77.7%, the viability, T/C (second compound 0.0316 µM, first compound 3.16 µM) was 52.4% and the viability, T/C (second compound 0.0316 µM, first compound 10 µM) was 53.6%. It also gave a viability, T/C [5] of 92.4%, a viability, T/C [6] of 104% and a viability, T/C [7] of 85.8%. It also gave a viability, T/C [8] of 76.1%, a viability, T/C (second compound 0.1 µM, first compound 3.16 µM) of 54.9% and a viability, T/C (second compound 0.1 µM, first compound 10 µM) of 64.9%. It also gave a viability, T/C [9] of 98.7%, a viability, T/C [10] of 102% and a viability, T/C [11] of 82.2%. For the same molecule, the viability, T/C [12] was 65.8%, the viability, T/C (second compound 0.316 µM, first compound 3.16 µM) was 59.4% and the viability, T/C (second compound 0.316 µM, first compound 10 µM) was 63.1%. It also gave a viability, T/C [13] of 105%, a viability, T/C [14] of 99.4% and a viability, T/C [15] of 96.4%. For the same molecule, the viability, T/C [16] was 71.3%, the viability, T/C (second compound 1 µM, first compound 3.16 µM) was 58% and the viability, T/C (second compound 1 µM, first compound 10 µM) was 68.1%. It also gave a viability, T/C [17] of 96.8%, a viability, T/C [18] of 124% and a viability, T/C [19] of 86.6%. The viability, T/C [20] was 84.6%, the viability, T/C (second compound 3.16 µM, first compound 3.16 µM) was 62.9% and the viability, T/C (second compound 3.16 µM, first compound 10 µM) was 68.9%. The viability, T/C [21] was 110%, the viability, T/C [22] was 119% and the viability, T/C [23] was 102%. For the same molecule, the viability, T/C [24] was 64.5%, the viability, T/C (second compound 10 µM, first compound 3.16 µM) was 65% and the viability, T/C (second compound 10 µM, first compound 10 µM) was 47.2%.

Work on `CCN1CCN(Cc2ccc(Nc3ncc(F)c(-c4cc(F)c5nc(C)n(C(C)C)c5c4)n3)nc2)CC1` + C=CC(=O)N1CCN(c2nc(=O)n(-c3c(C)ccnc3C(C)C)c3nc(-c4c(O)cccc4F)c(F)cc23)C(C)C1 yielded an IC50 (second compound 0.0316 µM) greater than 1 µM, an IC50 (second compound 0.1 µM) greater than 1 µM and an IC50 (second compound 0.316 µM) greater than 1 µM. It also gave an IC50 (second compound 1 µM) greater than 1 µM, an IC50 (second compound 3.16 µM) greater than 1 µM and an IC50 (second compound 10 µM) greater than 1 µM. It also gave a viability, T/C [25] of 76%, a viability, T/C [26] of 95.8% and a viability, T/C [1] of 93.7%. The viability, T/C [2] was 86.6%, the viability, T/C [3] was 129% and the viability, T/C [4] was 107%. For the same molecule, the viability, T/C [27] was 96.8%, the viability, T/C [28] was 102% and the viability, T/C [5] was 85.1%. For the same molecule, the viability, T/C [6] was 82.9%, the viability, T/C [7] was 129% and the viability, T/C [8] was 116%. It also gave a viability, T/C [29] of 113%, a viability, T/C [30] of 106% and a viability, T/C [9] of 98%. The viability, T/C [10] was 87.2%, the viability, T/C [11] was 112% and the viability, T/C [12] was 123%. It also gave a viability, T/C [31] of 118%, a viability, T/C [32] of 109% and a viability, T/C [13] of 109%. The viability, T/C [14] was 119%, the viability, T/C [15] was 119% and the viability, T/C [16] was 133%. The viability, T/C [33] was 127%, the viability, T/C [34] was 111% and the viability, T/C [17] was 132%. For the same molecule, the viability, T/C [18] was 121%, the viability, T/C [19] was 138% and the viability, T/C [20] was 162%. The viability, T/C [35] was 149%, the viability, T/C [36] was 154% and the viability, T/C [21] was 130%. It also gave a viability, T/C [22] of 134%, a viability, T/C [23] of 118% and a viability, T/C [24] of 162%.

`Cn1ncnc1[C@H]1c2n[nH]c(=O)c3cc(F)cc(c23)N[C@@H]1c1ccc(F)cc1` + C=CC(=O)N1CCN(c2nc(=O)n(-c3c(C)ccnc3C(C)C)c3nc(-c4c(O)cccc4F)c(F)cc23)C(C)C1 showed an IC50 (second compound 0.0316 µM) greater than 0.1 µM, an IC50 (second compound 0.1 µM) greater than 0.1 µM and an IC50 (second compound 0.316 µM) greater than 0.1 µM. The IC50 (second compound 1 µM) was greater than 0.1 µM, the IC50 (second compound 3.16 µM) was greater than 0.1 µM and the IC50 (second compound 10 µM) was greater than 0.1 µM. The viability, T/C (second compound 0.0316 µM, first compound 0.000316 µM) was 101%, the viability, T/C (second compound 0.0316 µM, first compound 0.001 µM) was 100% and the viability, T/C [25] was 74.3%. It also gave a viability, T/C [26] of 94.3%, a viability, T/C [1] of 83.1% and a viability, T/C [2] of 105%. The viability, T/C (second compound 0.1 µM, first compound 0.000316 µM) was 92.6%, the viability, T/C (second compound 0.1 µM, first compound 0.001 µM) was 117% and the viability, T/C [27] was 101%. For the same molecule, the viability, T/C [28] was 79.5%, the viability, T/C [5] was 96.2% and the viability, T/C [6] was 83.5%. For the same molecule, the viability, T/C (second compound 0.316 µM, first compound 0.000316 µM) was 110%, the viability, T/C (second compound 0.316 µM, first compound 0.001 µM) was 110% and the viability, T/C [29] was 97.2%. For the same molecule, the viability, T/C [30] was 97.1%, the viability, T/C [9] was 99.2% and the viability, T/C [10] was 114%. For the same molecule, the viability, T/C (second compound 1 µM, first compound 0.000316 µM) was 114%, the viability, T/C (second compound 1 µM, first compound 0.001 µM) was 106% and the viability, T/C [31] was 95.4%. It also gave a viability, T/C [32] of 106%, a viability, T/C [13] of 106% and a viability, T/C [14] of 86%. The viability, T/C (second compound 3.16 µM, first compound 0.000316 µM) was 110%, the viability, T/C (second compound 3.16 µM, first compound 0.001 µM) was 141% and the viability, T/C [33] was 101%. The viability, T/C [34] was 140%, the viability, T/C [17] was 130% and the viability, T/C [18] was 93.5%. For the same molecule, the viability, T/C (second compound 10 µM, first compound 0.000316 µM) was 129%, the viability, T/C (second compound 10 µM, first compound 0.001 µM) was 127% and the viability, T/C [35] was 112%. For the same molecule, the viability, T/C [36] was 103%, the viability, T/C [21] was 105% and the viability, T/C [22] was 123%.
